Test results published in US7402600B2, “Nitroderivatives of cardiovascular agents” (NicOx S.A., priority 1999, dated 2008).

Assays:
rats = assay: in vivo; settings: rats not treated with NEM, single dose, s.c.
Procedure: (§1) The animals are sacrificed after 24 hours and then one proceeds to the evaluation of the damage to the gastrointestinal mucosa.

gastrointestinal mucosa = assay: Test 1 (NEM): gastric tolerability of precursor drugs in rats treated or not with N-ethylmaleimide; settings: rats, sacrifice after 24 hours
Procedure: The animals (rats) are distributed in the following groups (no. 10 animals for group):
• 1° group: treatment: only carrier (aqueous suspension 1% w/v of carboxymethylcellulose, dose: 5 ml/Kg when the drug is administered by os, or a physiologic solution when parenterally administered, i.e. by subcutaneous, intraperitoneal, intravenous or intramuscular route), • 2° group: treatment: carrier as above defined+NEM, B) Groups Treated with the Drug: • group I: treatment: carrier+drug, • group II: treatment: carrier+drug+NEM.
The administration routes are those known for the drug, and can be the oral or subcutaneous, intraperitoneal, intravenous or intramuscular route.
as §1
Test 1—Experimental Model in Vivo with N-ethylmaleimide (NEM): Study of the Gastric Tolerability of Some Drugs Screened as Precursors of the Compounds of the Invention.
The animals (rats, weight about 200 g) are distributed in the following groups (No. 10 animals for group):
• 1° group: treatment: only carrier (aqueous suspension 1% w/v of carboxymethylcellulose, dose: 5 ml/Kg when the drug is administered by os, physiologic solution when by parenteral route), • 2° group: treatment: carrier+NEM B) Groups Administered with Each Drug: • group I: treatment: carrier+drug, • group II: treatment: carrier+drug+NEM.
The drug is administered one hour later, in suspension in the carrier. Animals are sacrificed after 24 hours and evaluation of the damage to the gastrointestinal mucosa is made by counting the number of rats, inside each group, with lesions to the stomach at a visual inspection. The total number of said rats is then divided by the total number of rats of the group and multiplied by 100.

[1] = test system: gastrointestinal mucosa, GPT, blood pressure; settings: rat, in vivo
Procedure: The endothelial dysfunction is evaluated by determining the damage to the gastrointestinal mucosa, the hepatic damage and blood hypertension induced by administration of L-NAME.
The animals (rats) are divided in groups as herein below shown. The group receiving L-NAME is treated for 4 weeks with said compound dissolved at a concentration of 400 mg/litre in drinking water. The following groups are constituted (No. 10 animals for group):
• 1° group: only carrier (aqueous suspension 1% w/v of carboxymethylcellulose, dose: 5 ml/Kg when the drug is administered by os, phisiologic solution when administered parenterally), • 2° group: carrier+L-NAME, B) Groups Administered with the Drug: • 3° group: carrier+drug, • 4° group: carrier+drug+L-NAME.
The administration routes are those known for the drug, and can be the oral or subcutaneous, intraperiteneal, intravenous or intramuscular route. […] The drug is administered once a day for 4 weeks.
At the end of the four weeks treatment access to water is prevented and after 24 hours the animals are sacrificed.
One hour before the sacrifice blood-pressure is determined, and a blood pressure increase is taken as an evaluation of the damage to vascular endothelium. […] The hepatic damage is determined by evaluation of the glutamic-pyruvic transaminase (GPT increase) after sacrifice.
Test 3-Experimental in Vivo Model with N^w-nitro-L-arginine-methyl ester (L-NAME): Gastric Tolerability (Gastrointestinal Damage Incidence), Hepatic (GPT Dosage, Glutamic-pyruvic Transaminase) and Cardiovascular (Blood Pressure) Tolerability of Some Drugs Screened as Precursors of the Compounds of the Invention.
The endothelial dysfunction is evaluated by determining the damage induced by L-NAME administration to the gastrointestinal mucosa, the hepatic damage (GPT increase), and the vascular endothelium or cardiovascular damage as blood hypertension.
The animals (rats, average weight 200 g) are divided in groups as herein below described. The group receiving L-NAME is treated for 4 weeks with said compound dissolved at the concentration of 400 mg/litre in drinking water. The following groups (No. 10 animals for group) are constituted:
• 1° group: treatment: only carrier (aqueous suspension 1% w/v of carboxymethylcellulose, dose: 5 ml/Kg when the drug is administered by os, physiologic solution when by parenteral route), • 2° group: treatment: carrier+L-NAME, B) Groups Treated with the Drug: • 3° group: treatment: carrier+drug, • 4° group: treatment: carrier+drug+L-NAME.
Each drug is administered once a day for 4 weeks.
At the end of the four weeks access to water is prevented and after 24 hours the animals are sacrificed.
One hour before the sacrifice blood pressure is determined and a blood pressure increase is taken as an indication of a damage being occurred to vascular endothelium.
The hepatic damage is determined by evaluation after the sacrifice of the glutamic-pyruvic transaminase (GPT increase).
The % gastric lesions have been determined as in Test 1.

gastric mucosa = assay: Example F7: gastric tolerability after oral administration in NEM-treated rats; format: in vivo; settings: rats all receiving NEM, p.o., 0.02 mmoles/Kg of each component
Procedure: Example F1 was repeated with four groups of rats (each group of ten animals), all of them receiving NEM, and orally administered as it follows: • a. control group: the vehicle formed of an aqueous suspension 1% w/v of carboxymethylcellulose, • b. one group (group b—comparative) administered at the same time with 5 mg/Kg (0.02 mmoles/Kg) of flurbiprofen+2.7 mg/Kg (0.02 mmoles/Kg) of 4-thiazolidin carboxilic acid in the same above vehicle, • c. one group (group c—comparative) administered at the same time with 7.4 mg/Kg (0.02 mmoles/Kg) of 4-(nitroxy)butyl ester of flurbiprofen, synthetized according to the method described in WO 94/12463, +2.7 mg/Kg (0.02 mmoles/Kg) of 4-thiazolidin carboxilic in the same above vehicle, • d. one group (group d) administered with 9.8 mg/Kg (0.02 mmoles/Kg) of 3-[2-fluoro-α-methyl-(1,1′-biphenyl)-4-acetyl]thiazolidin-4-carboxylic acid 4-(nitroxy)butyl ester synthetized as from Ex. 1(indicated as NO-Flurbiprofen in Table VII), in the above same vehicle.

SMILES | maximum tolerated dose (dose (mg/Kg)/admin. route) (rats) | Gastro-enteropathy (% incidence) with NEM (gastrointestinal mucosa; NEM 25 mg/kg s.c. one hour before drug at maximum tolerated dose) [%] | Gastro-enteropathy (% incidence) without NEM (gastrointestinal mucosa; single maximum tolerated dose, without NEM) [%] | GPT % without L-NAME [1] [%] | Gastroenteropathy % without L-NAME ([1]; 4 weeks) [%] | Gastropathy % incidence (gastric mucosa) [%]
CCCCC(C)(O)C/C=C/[C@H]1[C@H](O)CC(=O)[C@@H]1CCCCCCC(=O)OC (mixture of isomers) [Misoprostol] | 0.5/s.c. mg/Kg | 0 | 0 | 100 | 0 | 
CC(C(=O)N1CSCC1C(=O)OCCCCO[N+](=O)[O-])c1ccc(-c2ccccc2)c(F)c1 (stereo not drawn) [Example 1, 3-[2-fluoro-α-methyl-(1,1′-biphenyl)-4-acetyl]thiazolidin-4-carboxylic acid 4-(nitroxy)butyl ester] |  |  |  |  |  | 0
